Laboratory results taken from the OPERA property sets (Mansouri et al. 2018).

Compound	melting point [°C]	boiling point [°C]	other results
CCS(=O)(=O)c1nnc(N(C)C(=O)NC)s1	156		
CCc1cccc(CC)c1N	3.5	236	log10 vapour pressure (mmHg): -2.42
CC(C)OC(=O)C(Cl)(Cl)Cl		175	
C1=CSCC1		112	
CC1(C)C2CC3C(C2)C31C	67.5	152	
FC(F)(Br)C(F)(F)C(F)(F)C(F)(F)C(F)(F)C(F)(F)Br		142	
NS(=O)(=O)c1cc(C(=O)O)ccc1Cl	257		
C[C@]1(C(=O)O)CCC[C@]2(C)c3cc(O)ccc3CC[C@@H]12	194		
C=C(C)C(=O)OCC(C)O (stereo unspecified)			ready biodegradability: readily biodegradable
CC(F)F	-117	-24.9	log10 Henry constant (atm·m³/mol): -1.69; log10 vapour pressure (mmHg): 3.66
c1ccc2c(c1)CCO2	-21.5	188	
COP(=S)(OC)Oc1ccc([N+](=O)[O-])cc1Cl	52.5		log10 vapour pressure (mmHg): -5.44; log10 BCF (fish): 1.89; log10 biotransformation half-life (days) (fish): 0.01
CCCCNc1cc(C(=O)O)cc(S(N)(=O)=O)c1Oc1ccccc1	230		
CC(C)C(=O)C(C)C	-69	125	log10 vapour pressure (mmHg): 1.13
S=C1NCCN1	203	347	ready biodegradability: not readily biodegradable; log10 BCF (fish): 0.26
O=C(O)C(F)(F)C(F)(F)C(F)(F)F	-17.5	121	log10 vapour pressure (mmHg): 0.804
C=CCC1(C(C)C)C(=O)NC(=O)N(C)C1=O (stereo unspecified)	56.5		
O=C1C=CC2(CCC23C=CC(=O)O3)O1 (stereo unspecified)	158		
Fc1ccc(N2CCNCC2)cc1	31.5		
CC=C(C)CCC			log10 vapour pressure (mmHg): 1.7
CCCC(=O)OC(=O)CCC	-75	200	log10 vapour pressure (mmHg): -0.548
c1ccc(CC2CCCCN2)cc1 (stereo unspecified)	32	268	
O=C(Nc1ccc(Cl)c(Cl)c1)Nc1cc(Cl)ccc1Oc1ccc(Cl)cc1S(=O)(=O)[O-].[Na+]	223		
C[C@]12CCC(=O)C=C1CC[C@@H]1[C@@H]2CC[C@]2(C)C(=O)CC[C@@H]12	158		
Nc1c(Br)cc2c(c1Br)Cc1ccccc1-2			ready biodegradability: not readily biodegradable
Oc1ccc(Oc2ccccc2)cc1	84		

Compound	melting point [°C]	boiling point [°C]	other results
Cc1ccnc(C)c1C		192	
OCC1CCCCC1	-43	183	
FC(I)I	-34.5	100	
Nc1ccc(S(=O)(=O)Nc2ccccn2)cc1	192		
CCOC(=O)C=Cc1ccc([N+](=O)[O-])cc1	139		
O=c1c2ccccc2c(=O)c2c1ccc1[nH]c3c(ccc4c(=O)c5ccccc5c(=O)c43)[nH]c12			ready biodegradability: not readily biodegradable
CCCCc1c(C)nc(NCC)nc1O	160		log10 vapour pressure (mmHg): -5.7
Sc1ccccc1	-14.9	169	log10 vapour pressure (mmHg): 0.286; ready biodegradability: not readily biodegradable
C[C@@]12C(=O)OC(=O)[C@]1(C)C1CCC2O1	218		
Oc1cccc(S)c1	16.5		
c1ccc(-c2ccncn2)cc1	56		
CCCCc1cc2ccccc2c(OCCN(C)C)n1	146		
NC(=O)C[C@H](O)C(=O)O	148		
CNC(=O)OCc1cccc(COC(=O)NC)n1	136		
COC(=O)c1cc(C)ccc1O	-1	244	
CCCC(Cl)CCl (stereo unspecified)		148	
Cc1cc(S(=O)(=O)c2ccccc2)ccc1NS(=O)(=O)C(F)(F)F	143		log10 Koc (L/kg): 3.08
CC(=O)N(C)c1ccccc1C	55.5	260	
Clc1ccc(C(Cl)c2ccccc2)cc1 (stereo unspecified)			ready biodegradability: not readily biodegradable
CC(C)c1ccc(NC(=O)N(C)C)cc1	158		log10 vapour pressure (mmHg): -7.61
CCCSCCC	-102	143	log10 Henry constant (atm·m³/mol): -2.49; log10 vapour pressure (mmHg): 0.81
CC1CCc2ccccc2O1 (stereo unspecified)		224	
NC(=O)C(F)(F)F	72.5	162	
C1SCSCS1	220		
O=C1C=C(Cl)C(=O)O1	33	196	
